# From US9422263B2, “Fluoro-substituted 3,5-dicyano-4-(1H-indazol-5-yl)-2,6-dimethyl-1,4-dihydropyridine derivatives and methods of use thereof” (BAYER PHARMA AKTIENGESELLSCHAFT, priority 2009, dated 2016)
# Where two headings read alike, the source gives them in different places.
# Legend:
# [1] = Caco-2 permeability assay; assay type: in vitro ADME; details: human, apical to basolateral, 2 h at 37° C.
# Text: Caco-2 Permeability Assay:
# The in vitro permeation of a test compound across a Caco-2 cell monolayer is a well-established assay system to predict the permeability from the gastro-intestinal tract [cf. P. Artursson and J. Karlsson: Correlation between oral drug absorption in humans and apparent drug permeability coefficients in human intestinal epithelial (Caco-2) cells, Biochem. Biophys. 175 (3), 880-885 (1991)]. The permeability of the compounds of the present invention in such Caco-2 cells was determined as described below:
# Human caco-2 cells (ACC No. 169, DSMZ, German Collection of Microorganisms and Cell Cultures, Braunschweig, Germany) are seeded on 24-well insert plates and are allowed to grow for 14-16 days. For permeability studies, the test compounds are dissolved in DMSO and diluted to the final test concentration of 2 μM with transport buffer [Hanks' Buffered Salt Solution, Gibco/Invitrogen, further supplemented with glucose (final concentration 19.9 mM) and HEPES (final concentration 9.8 mM)]. For determination of the apical to basolateral permeability (PappA-B), the test compound solution is added to the apical side of the cell monolayer and transport buffer to the basolateral side of the monolayer; for determination of the basolateral to apical permeability (PappB-A), the test compound solution is added to the basolateral side of the cell monolayer and transport buffer to the apical side of the monolayer. Samples are taken from the donor compartment at the beginning of the experiment to confirm mass balance. After an incubation of 2 h at 37° C., samples are taken from both compartments. Samples are analyzed by LC-MS/MS, and the apparent permeability coefficients are calculated. Lucifer Yellow permeability is assayed for each cell monolayer to ensure cell monolayer integrity, and the permeability of Atenolol (low permeability marker) and Sulfasalazine (marker for active excretion) is determined for each batch as quality control.
# [2] = Pharmacokinetics after intravenous administration of test compounds; assay type: in vivo, rat; details: for in vivo PK, rat i.v. CLblood: male Wistar rats, total blood clearance; for in vivo PK, rat i.v. Fmax, calc: Fmax,calc=[1−CLblood/Qh]*100, Qh 4.2 L per h per kg
# Experimental: Pharmacokinetics after Intravenous Administration of Test Compounds: Male Wistar rats (Harlan Laboratories) are anesthetized and a catheter is inserted into the jugular vein of the rat. The next day, a defined dose of the test compound is administered as solution by injection into the tail vein. Blood samples are collected through the jugular catheter during the next 24 h (8-11 time points). Blood is centrifuged in heparin-tubes, and each plasma sample is treated with acetonitrile for protein precipitation. After centrifugation, the test compound in the supernatant is quantified using an LC-MS/MS method. The determined plasma concentrations are used for the calculation of pharmacokinetic parameters, such as AUC (area under the plasma concentration vs. time curve), Vss (volume of distribution under steady-state conditions), Cmax (highest test compound concentration observed in plasma following administration), t1/2 (half-life) and CL (total clearance of the test compound from the plasma). For the calculation of the blood clearance, the blood to plasma partitioning is determined by incubation of the test compound in blood of rats. After separation of the plasma by centrifugation, the concentration in the plasma is determined by an LC-MS/MS method. Under the assumption that the test compound is completely absorbed, the theoretically maximum achievable bioavailability Fmax,calc is calculated by the equation Fmax,calc=[1−CLblood/Qh]*100, wherein CLblood is the total blood clearance and Qh is the hepatic blood flow in rat of 4.2 L per h per kg.
# [3] = Pharmacokinetics after peroral administration of test compounds; assay type: in vivo, rat; details: for in vivo PK, rat p.o. F / in vivo PK, rat p.o. AUCnorm: male Wistar rats; for in vivo PK, rat p.o. F: bioavailability; for in vivo PK, rat p.o. AUCnorm: dose and body weight-normalized AUC; for Fraction absorbed fabs, calc: rat p.o., fabs,calc=[F/Fmax,calc]*100
# Experimental: Pharmacokinetics after Peroral Administration of Test Compounds: Male Wistar rats (Harlan Laboratories) are anesthetized and a catheter is inserted into the jugular vein of the rat. The next day, a defined dose of the test compound is administered perorally. Blood samples are collected through the jugular catheter during the next 24 h (8-11 time points). Blood is centrifuged in heparin-tubes, and each plasma sample is treated with acetonitrile for protein precipitation. After centrifugation, the test compound in the supernatant is quantified using an LC-MS/MS method. The determined plasma concentrations are used for the determination of pharmacokinetic parameters, such as AUC (area under the plasma concentration vs. time curve), Cmax (highest test compound concentration observed in plasma following administration), t1/2 (half-life) and F (bioavailability). The fraction of the dose absorbed (fabs,calc) is calculated by the equation fabs,calc=[F/Fmax,calc]*100, wherein F is the determined bioavailability after peroral administration and Fmax,calc is the theoretically maximum achievable bioavailability considering the determined blood clearance and assuming that the test compound is completely absorbed.
# [4] = Table 3, read-out: Caco-2 permeability PappA-B
# [5] = Table 4, read-out: Caco-2 permeability PappA-B
Compound,"Papp at 2 h, 2 μM [1, 4] [×10⁻⁶ cm/s]","in vivo PK, rat i.v. CLblood [2] [mL/min/kg]","in vivo PK, rat i.v. Fmax, calc [2] [%]","in vivo PK, rat p.o. F [3] [%]","Fraction absorbed fabs, calc [3] [%]","Papp at 2 h, 2 μM [1, 5] [×10⁻⁶ cm/s]","in vivo PK, rat p.o. AUCnorm [3] [kg·h/L]"
"CC1=C(C#N)C(c2cc3c(C)n[nH]c3cc2F)C(C#N)=C(C(F)F)N1 (racemic) [Example 7, rac-2-(Difluoromethyl)-4-(6-fluoro-3-methyl-1H-indazol-5-yl)-6-methyl-1,4-dihydropyridine-3,5-dicarbonitrile]",22,26.7,62,68,109,,0.69
"CC1=C(C#N)C(c2cc3cn[nH]c3cc2F)C(C#N)=C(C(F)F)N1 (racemic) [Example 16, rac-2-(Difluoromethyl)-4-(6-fluoro-1H-indazol-5-yl)-6-methyl-1,4-dihydropyridine-3,5-dicarbonitrile]",,,,,,22.6,
"CC1=C(C#N)C(c2cc3cn[nH]c3cc2F)C(C#N)=C(C(F)(F)F)N1 (racemic) [Example 19, rac-4-(6-Fluoro-1H-indazol-5-yl)-2-methyl-6-(trifluoromethyl)-1,4-dihydropyridine-3,5-dicarbonitrile]",17.6,36.5,48,40,84,,0.33
"CC1=C(C#N)C(c2cc3c(C)n[nH]c3cc2F)C(C#N)=C(C(F)(F)F)N1 (single isomer, unassigned) [Example 12, 4-(6-Fluoro-3-methyl-1H-indazol-5-yl)-2-methyl-6-(trifluoromethyl)-1,4-dihydropyridine-3,5-dicarbonitrile]",18.7,13.2,81,48,59,,1.1
"Cc1n[nH]c2ccc(C3C(C#N)=C(C(F)F)NC(C(F)F)=C3C#N)cc12 [Example 13, 2,6-Bis(difluoromethyl)-4-(3-methyl-1H-indazol-5-yl)-1,4-dihydropyridine-3,5-dicarbonitrile]",39.3,2.83,96,70,73,,6.16
"N#CC1=C(C(F)F)NC(C(F)F)=C(C#N)C1c1cc2cn[nH]c2cc1F [Example 15, 2,6-Bis(difluoromethyl)-4-(6-fluoro-1H-indazol-5-yl)-1,4-dihydropyridine-3,5-dicarbonitrile]",16.9,3.83,95,63,66,,3.87

# Second part, led by results:
"Papp at 2 h, 2 μM [1, 4] [×10⁻⁶ cm/s]","in vivo PK, rat i.v. CLblood [2] [mL/min/kg]","in vivo PK, rat i.v. Fmax, calc [2] [%]","in vivo PK, rat p.o. F [3] [%]","Fraction absorbed fabs, calc [3] [%]","Papp at 2 h, 2 μM [1, 5] [×10⁻⁶ cm/s]",Compound,"in vivo PK, rat p.o. AUCnorm [3] [kg·h/L]"
,,,,,38.8,"CC1=C(C#N)C(c2ccc3[nH]nc(C)c3c2)C(C#N)=C(C(F)(F)F)N1C (racemic) [Example 42, rac-1,2-Dimethyl-4-(3-methyl-1H-indazol-5-yl)-6-(trifluoromethyl)-1,4-dihydropyridine-3,5-dicarbonitrile]",
,,,,,29,"CCc1n[nH]c2ccc(C3C(C#N)=C(C(F)F)NC(C(F)F)=C3C#N)cc12 [Example 25, 2,6-Bis(difluoromethyl)-4-(3-ethyl-1H-indazol-5-yl)-1,4-dihydropyridine-3,5-dicarbonitrile]",
,,,,,34.8,"Cc1n[nH]c2ccc(C3C(C#N)=C(C(F)(F)F)NC(C(F)(F)F)=C3C#N)cc12 [Example 26, 4-(3-Methyl-1H-indazol-5-yl)-2,6-bis(trifluoromethyl)-1,4-dihydropyridine-3,5-dicarbonitrile]",
